In one test the target is T1, LCAT (Homo sapiens, UniProt P04180).
T1 construct: The obtained fraction was dialyzed against phosphate-buffered saline (pH 7.4) and used as an enzyme source and an acceptor for LCAT; from tissue; host or cells: HDL3 fraction (1.125 < specific gravity < 1.210 g/mL) of plasma from a healthy person
T1 sequence (P04180 25-440): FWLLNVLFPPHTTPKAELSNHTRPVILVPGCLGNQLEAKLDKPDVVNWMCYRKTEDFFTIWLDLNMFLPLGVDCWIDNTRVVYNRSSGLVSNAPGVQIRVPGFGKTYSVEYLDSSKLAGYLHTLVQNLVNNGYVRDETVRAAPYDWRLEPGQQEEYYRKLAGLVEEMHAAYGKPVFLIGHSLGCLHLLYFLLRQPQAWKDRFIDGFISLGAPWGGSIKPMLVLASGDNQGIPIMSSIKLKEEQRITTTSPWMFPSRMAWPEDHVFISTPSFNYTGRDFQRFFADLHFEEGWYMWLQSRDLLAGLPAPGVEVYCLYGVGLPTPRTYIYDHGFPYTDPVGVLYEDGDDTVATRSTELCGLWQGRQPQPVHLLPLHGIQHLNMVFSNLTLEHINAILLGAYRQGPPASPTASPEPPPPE
In words: LCAT activity measurement (in vitro), [14C]cholesterol esterification with HDL3 fraction. The note with it: HDL3 fraction from plasma of a healthy person as enzyme source and acceptor; 37° C., approximately 16 hours; relative to sample without test drug; read-out: EC50 of LCAT activation. Type of test: biochemical. Here is the method:
A fraction composed of HDL3 (1.125 <specific gravity <1.210 g/mL) was obtained from the plasma of a healthy person by density gradient centrifugation. The obtained fraction was dialyzed against phosphate-buffered saline (pH 7.4) and used as an enzyme source and an acceptor for LCAT. Each test drug was prepared by dissolution in dimethyl sulfoxide. [^14C]Cholesterol containing DTNB (Ellman's reagent, final concentration: 0.5 mM), mercaptoethanol (final concentration: 12.5 mM), and 0.6% bovine serum albumin was added to phosphate-buffered saline (pH 7.4) containing 1 mg/mL HDL3, and the test drug was further added thereto at varying concentrations to adjust the whole amount to 80 μL. This mixture was incubated at 37° C. for approximately 16 hours. Then, a mixed solution of hexane and isopropanol (mixing ratio=3:2) was added thereto to stop the reaction. After stirring, the hexane layer was collected, and this layer was evaporated to dryness. A chloroform solution (concentration: 10 mg/mL) was added thereto, and the mixture was spotted onto a thin-layer silica gel plate and developed using a mixed solution of hexane, diethyl ether, and ethyl acetate (mixing ratio=85:15:2). The radioactivity of a portion corresponding to cholesterol oleate was measured using an imaging analyzer BAS-2500 (manufactured by Fujifilm Corp.). A sample non-supplemented with the test drug was similarly treated and assayed. The EC50 value of LCAT activation was calculated according to the expression given below relative to LCAT activity in the sample non-supplemented with the test drug.
[formula] • wherein X represents the logarithm of the concentration of the test drug; • Y represents the responsiveness (LCAT activity) of the test drug; • Top represents the maximum value (maximum plateau); • Bottom represents the minimum value (minimum plateau); and • EC50 represents the 50% effective concentration.

For another test, the system named is cynomolgus monkey. In words: Drug efficacy test in cynomolgus monkeys (plasma HDL cholesterol). Type of test: in vivo. The note with it: Macaca fascicularis, oral, single dose of 10 mg/kg, from AUC before administration and 24 hours after administration, read-out: Rate of increase in HDL level after administration of single dose. Here is the method:
Each test drug was dissolved in a propylene glycol (Sigma-Aldrich Corp.)-Tween 80 (Sigma-Aldrich Corp.) mixed solution [4/1 (v/v)] or a 0.5% (w/v) methylcellulose aqueous solution, and the solution was orally administered to a cynomolgus monkey for 1 or 7 days. At day 1 or 7 of the administration period, blood was collected before administration and after administration, and plasma was obtained. The content of cholesterol in the plasma was measured using a commercially available assay kit (Cholesterol-E Wako, Wako Pure Chemical Industries, Ltd.). The lipoprotein profile was analyzed by HPLC (column: LipopropakXL, manufactured by Tosoh Corp.). The contents of HDL cholesterol and non-HDL cholesterol were calculated according to the following calculation expression: Content of HDL cholesterol=Content of cholesterol in the plasma×(Peak area of HDL cholesterol/Total sum of peaks) Content of non-HDL cholesterol=Content of cholesterol in the plasma×(Peak area of non-HDL cholesterol/Total sum of peaks)

With `O=C1Nc2[nH]nc(C3CCN(c4ccc(Cl)cn4)CC3)c2[C@@H](C(F)(F)F)[C@H]1O` (single isomer, unassigned) [Example 22, (+)-cis-3-[1-(5-Chloropyridin-2-yl)piperidin-4-yl]-5-hydroxy-4-(trifluoromethyl)-1,4,5,7-tetrahydro-6H-pyrazolo[3,4-b]pyridin-6-one], the EC50 at LCAT is 0.032 µM. Moreover, the change in vivo at 10 mg/kg in the test on cynomolgus monkey amounted to 581%.
The corresponding values for `O=C1Nc2[nH]nc(C3CCN(c4cc(C(F)(F)F)ncn4)CC3)c2[C@@H](C(F)(F)F)[C@H]1O` (single isomer, unassigned) [Example 30, (+)-cis-5-Hydroxy-4-(trifluoromethyl)-3-{1-[6-(trifluoromethyl)pyrimidin-4-yl]piperidin-4-yl}-1,4,5,7-tetrahydro-6H-pyrazolo[3,4-b]pyridin-6-one] are 0.063 µM and 290%.
On the same counts, the results for `O=C1Nc2[nH]nc(C3CCN(c4cnc(C(F)(F)F)cn4)CC3)c2C(O)(C(F)(F)F)C1O` (single isomer, unassigned; (+)) [Example 34, (+)-4,5-Dihydroxy-4-(trifluoromethyl)-3-{1-[5-(trifluoromethyl)pyrazin-2-yl]piperidin-4-yl}-1,4,5,7-tetrahydro-6H-pyrazolo[3,4-b]pyridin-6-one] are 0.004 µM and 590%.
The corresponding values for `O=C1Nc2[nH]nc(C3CCN(c4ccc(C(F)(F)F)cn4)CC3)c2C(O)(C(F)(F)F)C1O` (single isomer, unassigned; (+)) [Example 35, (+)-4,5-Dihydroxy-4-(trifluoromethyl)-3-{1-[5-(trifluoromethyl)pyridin-2-yl]piperidin-4-yl}-1,4,5,7-tetrahydro-6H-pyrazolo[3,4-b]pyridin-6-one] are 0.007 µM and 482%.

The values are drawn from patent publication US9796709B2, “5-hydroxy-4-(trifluoromethyl)pyrazolopyridine derivative” (Daiichi Sankyo Company, Limited, priority 2013, dated 2017).
